Measurements as given in the OligoGym collection.
Oligonucleotides are given in HELM: sugar(base)linkage, 5' to 3'; d 2'-deoxyribose, r ribose, m 2'-O-methylribose, p phosphate. ss, as = sense and antisense strand
Also: test concentration or dose not given here.

What follows are substances tested against Mmp7 (rat) (assay: reporter assay of Huesken 2005). Conditions: siRNA.
In the case of “RNA1{r(G)p.r(C)p.r(A)p.r(G)p.r(A)p.r(C)p.r(A)p.r(U)p.r(C)p.r(A)p.r(U)p.r(A)p.r(A)p.r(U)p.r(U)p.r(G)p.r(G)p.r(C)p.r(U)p.d(T)p.d(T)}|RNA2{r(A)p.r(G)p.r(C)p.r(C)p.r(A)p.r(A)p.r(U)p.r(U)p.r(A)p.r(U)p.r(G)p.r(A)p.r(U)p.r(G)p.r(U)p.r(C)p.r(U)p.r(G)p.r(C)p.d(A)p.d(G)}$$$RNA1{StrandType:ss}|RNA2{StrandType:as}$”, the normalised inhibition (eCFP-eYFP dual reporter) is reported as 95.9%.
Substance “RNA1{r(G)p.r(C)p.r(A)p.r(G)p.r(U)p.r(G)p.r(G)p.r(A)p.r(C)p.r(A)p.r(A)p.r(A)p.r(C)p.r(U)p.r(G)p.r(A)p.r(G)p.r(G)p.r(G)p.d(T)p.d(T)}|RNA2{r(C)p.r(C)p.r(C)p.r(U)p.r(C)p.r(A)p.r(G)p.r(U)p.r(U)p.r(U)p.r(G)p.r(U)p.r(C)p.r(C)p.r(A)p.r(C)p.r(U)p.r(G)p.r(C)p.d(A)p.d(C)}$$$RNA1{StrandType:ss}|RNA2{StrandType:as}$” has a normalised inhibition (eCFP-eYFP dual reporter) of 32.3%.
“RNA1{r(G)p.r(C)p.r(C)p.r(A)p.r(C)p.r(U)p.r(C)p.r(A)p.r(U)p.r(G)p.r(A)p.r(A)p.r(C)p.r(U)p.r(U)p.r(G)p.r(G)p.r(C)p.r(C)p.d(T)p.d(T)}|RNA2{r(G)p.r(G)p.r(C)p.r(C)p.r(A)p.r(A)p.r(G)p.r(U)p.r(U)p.r(C)p.r(A)p.r(U)p.r(G)p.r(A)p.r(G)p.r(U)p.r(G)p.r(G)p.r(C)p.d(A)p.d(A)}$$$RNA1{StrandType:ss}|RNA2{StrandType:as}$” was tested, and the normalised inhibition (eCFP-eYFP dual reporter) was 62.2%.
For “RNA1{r(G)p.r(C)p.r(C)p.r(A)p.r(C)p.r(U)p.r(C)p.r(U)p.r(C)p.r(U)p.r(G)p.r(G)p.r(G)p.r(U)p.r(C)p.r(U)p.r(G)p.r(G)p.r(G)p.d(T)p.d(T)}|RNA2{r(C)p.r(C)p.r(C)p.r(A)p.r(G)p.r(A)p.r(C)p.r(C)p.r(C)p.r(A)p.r(G)p.r(A)p.r(G)p.r(A)p.r(G)p.r(U)p.r(G)p.r(G)p.r(C)p.d(C)p.d(A)}$$$RNA1{StrandType:ss}|RNA2{StrandType:as}$”, the normalised inhibition (eCFP-eYFP dual reporter) was 63.3%.
Substance “RNA1{r(G)p.r(C)p.r(C)p.r(A)p.r(C)p.r(U)p.r(G)p.r(U)p.r(C)p.r(C)p.r(C)p.r(A)p.r(G)p.r(G)p.r(A)p.r(A)p.r(G)p.r(C)p.r(C)p.d(T)p.d(T)}|RNA2{r(G)p.r(G)p.r(C)p.r(U)p.r(U)p.r(C)p.r(C)p.r(U)p.r(G)p.r(G)p.r(G)p.r(A)p.r(C)p.r(A)p.r(G)p.r(U)p.r(G)p.r(G)p.r(C)p.d(A)p.d(G)}$$$RNA1{StrandType:ss}|RNA2{StrandType:as}$” has a normalised inhibition (eCFP-eYFP dual reporter) of 66%.
With “RNA1{r(G)p.r(C)p.r(C)p.r(A)p.r(G)p.r(A)p.r(U)p.r(G)p.r(U)p.r(U)p.r(G)p.r(C)p.r(A)p.r(G)p.r(A)p.r(A)p.r(U)p.r(U)p.r(C)p.d(T)p.d(T)}|RNA2{r(G)p.r(A)p.r(A)p.r(U)p.r(U)p.r(C)p.r(U)p.r(G)p.r(C)p.r(A)p.r(A)p.r(C)p.r(A)p.r(U)p.r(C)p.r(U)p.r(G)p.r(G)p.r(C)p.d(A)p.d(C)}$$$RNA1{StrandType:ss}|RNA2{StrandType:as}$” the normalised inhibition (eCFP-eYFP dual reporter) was 100%.
With “RNA1{r(G)p.r(C)p.r(C)p.r(A)p.r(G)p.r(G)p.r(C)p.r(C)p.r(U)p.r(C)p.r(G)p.r(G)p.r(C)p.r(G)p.r(G)p.r(A)p.r(G)p.r(A)p.r(U)p.d(T)p.d(T)}|RNA2{r(A)p.r(U)p.r(C)p.r(U)p.r(C)p.r(C)p.r(G)p.r(C)p.r(C)p.r(G)p.r(A)p.r(G)p.r(G)p.r(C)p.r(C)p.r(U)p.r(G)p.r(G)p.r(C)p.d(C)p.d(C)}$$$RNA1{StrandType:ss}|RNA2{StrandType:as}$” the normalised inhibition (eCFP-eYFP dual reporter) was 36.1%.
Substance “RNA1{r(G)p.r(C)p.r(C)p.r(U)p.r(C)p.r(G)p.r(G)p.r(C)p.r(G)p.r(G)p.r(A)p.r(G)p.r(A)p.r(U)p.r(G)p.r(C)p.r(U)p.r(C)p.r(A)p.d(T)p.d(T)}|RNA2{r(U)p.r(G)p.r(A)p.r(G)p.r(C)p.r(A)p.r(U)p.r(C)p.r(U)p.r(C)p.r(C)p.r(G)p.r(C)p.r(C)p.r(G)p.r(A)p.r(G)p.r(G)p.r(C)p.d(C)p.d(T)}$$$RNA1{StrandType:ss}|RNA2{StrandType:as}$” has a normalised inhibition (eCFP-eYFP dual reporter) of 90.2%.
Work on “RNA1{r(G)p.r(C)p.r(C)p.r(U)p.r(U)p.r(U)p.r(G)p.r(C)p.r(A)p.r(C)p.r(C)p.r(G)p.r(G)p.r(G)p.r(G)p.r(C)p.r(C)p.r(A)p.r(G)p.d(T)p.d(T)}|RNA2{r(C)p.r(U)p.r(G)p.r(G)p.r(C)p.r(C)p.r(C)p.r(C)p.r(G)p.r(G)p.r(U)p.r(G)p.r(C)p.r(A)p.r(A)p.r(A)p.r(G)p.r(G)p.r(C)p.d(A)p.d(T)}$$$RNA1{StrandType:ss}|RNA2{StrandType:as}$” yielded a normalised inhibition (eCFP-eYFP dual reporter) of 32.6%.
Work on “RNA1{r(G)p.r(C)p.r(G)p.r(G)p.r(A)p.r(G)p.r(A)p.r(U)p.r(G)p.r(C)p.r(U)p.r(C)p.r(A)p.r(C)p.r(U)p.r(U)p.r(U)p.r(G)p.r(A)p.d(T)p.d(T)}|RNA2{r(U)p.r(C)p.r(A)p.r(A)p.r(A)p.r(G)p.r(U)p.r(G)p.r(A)p.r(G)p.r(C)p.r(A)p.r(U)p.r(C)p.r(U)p.r(C)p.r(C)p.r(G)p.r(C)p.d(C)p.d(G)}$$$RNA1{StrandType:ss}|RNA2{StrandType:as}$” yielded a normalised inhibition (eCFP-eYFP dual reporter) of 108%.
“RNA1{r(G)p.r(C)p.r(U)p.r(C)p.r(A)p.r(C)p.r(U)p.r(U)p.r(U)p.r(G)p.r(A)p.r(C)p.r(A)p.r(A)p.r(G)p.r(G)p.r(A)p.r(U)p.r(G)p.d(T)p.d(T)}|RNA2{r(C)p.r(A)p.r(U)p.r(C)p.r(C)p.r(U)p.r(U)p.r(G)p.r(U)p.r(C)p.r(A)p.r(A)p.r(A)p.r(G)p.r(U)p.r(G)p.r(A)p.r(G)p.r(C)p.d(A)p.d(T)}$$$RNA1{StrandType:ss}|RNA2{StrandType:as}$” showed a normalised inhibition (eCFP-eYFP dual reporter) of 102%.
“RNA1{r(G)p.r(C)p.r(U)p.r(G)p.r(C)p.r(C)p.r(U)p.r(G)p.r(G)p.r(C)p.r(C)p.r(C)p.r(U)p.r(G)p.r(C)p.r(C)p.r(A)p.r(C)p.r(U)p.d(T)p.d(T)}|RNA2{r(A)p.r(G)p.r(U)p.r(G)p.r(G)p.r(C)p.r(A)p.r(G)p.r(G)p.r(G)p.r(C)p.r(C)p.r(A)p.r(G)p.r(G)p.r(C)p.r(A)p.r(G)p.r(C)p.d(C)p.d(T)}$$$RNA1{StrandType:ss}|RNA2{StrandType:as}$” was tested, and the normalised inhibition (eCFP-eYFP dual reporter) was 64.3%.
For “RNA1{r(G)p.r(C)p.r(U)p.r(U)p.r(C)p.r(G)p.r(C)p.r(A)p.r(A)p.r(G)p.r(G)p.r(G)p.r(G)p.r(A)p.r(G)p.r(A)p.r(U)p.r(C)p.r(A)p.d(T)p.d(T)}|RNA2{r(U)p.r(G)p.r(A)p.r(U)p.r(C)p.r(U)p.r(C)p.r(C)p.r(C)p.r(C)p.r(U)p.r(U)p.r(G)p.r(C)p.r(G)p.r(A)p.r(A)p.r(G)p.r(C)p.d(C)p.d(A)}$$$RNA1{StrandType:ss}|RNA2{StrandType:as}$”, the normalised inhibition (eCFP-eYFP dual reporter) was 105%.
Work on “RNA1{r(G)p.r(G)p.r(A)p.r(A)p.r(A)p.r(C)p.r(A)p.r(C)p.r(U)p.r(C)p.r(U)p.r(A)p.r(G)p.r(G)p.r(C)p.r(C)p.r(A)p.r(U)p.r(G)p.d(T)p.d(T)}|RNA2{r(C)p.r(A)p.r(U)p.r(G)p.r(G)p.r(C)p.r(C)p.r(U)p.r(A)p.r(G)p.r(A)p.r(G)p.r(U)p.r(G)p.r(U)p.r(U)p.r(U)p.r(C)p.r(C)p.d(T)p.d(G)}$$$RNA1{StrandType:ss}|RNA2{StrandType:as}$” yielded a normalised inhibition (eCFP-eYFP dual reporter) of 89.7%.
